How the values were obtained:
[1] = system: L1210; assay: Average weight change after administration at 12.8 mg/kg intraperitoneally in mice on day 1 in experiment 2; type: functional, Mus musculus; conditions: route intraperitoneal
[2] = system: Bacillus subtilis; assay: Tested for antibacterial effect against Bacillus subtilis-8 at dose 6.25 ug/mL; type: functional
[3] = system: Bacillus subtilis; assay: Tested for antibacterial effect against Bacillus subtilis-8 at dose 25 ug/mL; type: functional
[4] = system: L1210; assay: Average weight change after administration at 51.2 mg/kg intraperitoneally in mice on day 1 in experiment 2; type: functional, Mus musculus; conditions: route intraperitoneal
[5] = system: Bacillus subtilis; assay: Tested for antibacterial effect against Bacillus subtilis-8 at dose 50 ug/mL; type: functional
[6] = system: L1210; assay: Average weight change after administration at 3.2 mg/kg intraperitoneally in mice on day 1 in experiment 1; type: functional, Mus musculus; conditions: route intraperitoneal
[7] = system: L1210; assay: Average weight change after administration at 12.8 mg/kg intraperitoneally in mice on day 1 in experiment 1; type: functional, Mus musculus; conditions: route intraperitoneal
[8] = system: L1210; assay: Average weight change after administration from 1-9 days at 12.8 mg/kg intraperitoneally in BDF1 mice; type: functional, Mus musculus; conditions: route intraperitoneal
[9] = system: L1210; assay: Average weight change after administration from 1-9 days at 0.8 mg/kg intraperitoneally in BDF1 mice; type: functional, Mus musculus; conditions: route intraperitoneal
[10] = system: L1210; assay: Average weight change after administration from 1-9 days at 6.4 mg/kg intraperitoneally in BDF1 mice; type: functional, Mus musculus; conditions: route intraperitoneal
[11] = system: Bacillus subtilis; assay: Tested for antibacterial effect against Bacillus subtilis-8 at dose 3.1 ug/mL; type: functional
[12] = system: L1210; assay: Average weight change after administration from 1-9 days at 0.4 mg/kg intraperitoneally in BDF1 mice; type: functional, Mus musculus; conditions: route intraperitoneal
[13] = system: L1210; assay: Average weight change after administration at 1.6 mg/kg intraperitoneally in mice on day 1 in experiment 1; type: functional, Mus musculus; conditions: route intraperitoneal
[14] = system: L1210; assay: Average weight change after administration at 6.4 mg/kg intraperitoneally in mice on day 1 in experiment 2; type: functional, Mus musculus; conditions: route intraperitoneal
[15] = system: L1210; assay: Average weight change after administration at 25.6 mg/kg intraperitoneally in mice on day 1 in experiment 2; type: functional, Mus musculus; conditions: route intraperitoneal
[16] = system: L1210; assay: Average weight change after administration from 1-9 days at 3.2 mg/kg intraperitoneally in BDF1 mice; type: functional, Mus musculus; conditions: route intraperitoneal
[17] = system: L1210; assay: Average weight change after administration from 1-9 days at 1.6 mg/kg intraperitoneally in BDF1 mice; type: functional, Mus musculus; conditions: route intraperitoneal
[18] = system: L1210; assay: Average weight change after administration at 6.4 mg/kg intraperitoneally in mice on day 1 in experiment 1; type: functional, Mus musculus; conditions: route intraperitoneal
[19] = system: L1210; assay: Average weight change after administration at 1.6 mg/kg intraperitoneally in mice on day 1 in experiment 2; type: functional, Mus musculus; conditions: route intraperitoneal
[20] = system: L1210; assay: Average weight change after administration at 0.8 mg/kg intraperitoneally in mice on day 1 in experiment 1; type: functional, Mus musculus; conditions: route intraperitoneal
[21] = system: L1210; assay: Average weight change after administration at 0.4 mg/kg intraperitoneally in mice on day 1 in experiment 1; type: functional, Mus musculus; conditions: route intraperitoneal
[22] = system: L1210; assay: Average weight change after administration at 3.2 mg/kg intraperitoneally in mice on day 1 in experiment 2; type: functional, Mus musculus; conditions: route intraperitoneal
[23] = system: Bacillus subtilis; assay: Tested for antibacterial effect against Bacillus subtilis-8 at dose 12.5 ug/mL; type: functional
[24] = system: L1210; assay: Tested for survivors on day 5 after administration at 0.8 mg/kg intraperitoneally in mice on day 1; type: functional, Mus musculus; conditions: route intraperitoneal
[25] = system: L1210; assay: Tested for survivors on day 5 after administration at 1.6 mg/kg intraperitoneally in mice on day 1; type: functional, Mus musculus; conditions: route intraperitoneal
[26] = system: L1210; assay: Median survival time of treated to that of control after administration at 12.8 mg/kg intraperitoneally in BDF1 mice on day 1; type: functional, Mus musculus; conditions: route intraperitoneal
[27] = system: L1210; assay: Average weight change after administration at 0.4 mg/kg intraperitoneally in mice on day 1; type: functional, Mus musculus; conditions: route intraperitoneal
[28] = system: L1210; assay: Average weight change after administration at 3.2 mg/kg intraperitoneally in mice on day 1; type: functional, Mus musculus; conditions: route intraperitoneal
[29] = system: L1210; assay: Average weight change after administration at 1.6 mg/kg intraperitoneally in mice on day 1; type: functional, Mus musculus; conditions: route intraperitoneal
[30] = system: L1210; assay: Median survival time of treated to that of control after administration at 3.2 mg/kg intraperitoneally in BDF1 mice on day 1; type: functional, Mus musculus; conditions: route intraperitoneal
[31] = system: L1210; assay: Median survival time of treated to that of control after administration at 0.8 mg/kg intraperitoneally in BDF1 mice on day 1; type: functional, Mus musculus; conditions: route intraperitoneal
[32] = system: L1210; assay: Tested for survivors on day 5 after administration at 6.4 mg/kg intraperitoneally in mice on day 1; type: functional, Mus musculus; conditions: route intraperitoneal
[33] = system: L1210; assay: Median survival time of treated to that of control after administration at 1.6 mg/kg intraperitoneally in BDF1 mice on day 1; type: functional, Mus musculus; conditions: route intraperitoneal
[34] = system: L1210; assay: Tested for survivors on day 5 after administration at 3.2 mg/kg intraperitoneally in mice on day 1; type: functional, Mus musculus; conditions: route intraperitoneal
[35] = system: L1210; assay: Tested for survivors on day 5 after administration at 0.4 mg/kg intraperitoneally in mice on day 1; type: functional, Mus musculus; conditions: route intraperitoneal
[36] = system: L1210; assay: Tested for survivors on day 5 after administration at 12.8 mg/kg intraperitoneally in mice on day 1; type: functional, Mus musculus; conditions: route intraperitoneal
[37] = system: L1210; assay: Average weight change after administration at 12.8 mg/kg intraperitoneally in mice on day 1; type: functional, Mus musculus; conditions: route intraperitoneal
[38] = system: L1210; assay: Average weight change after administration at 0.8 mg/kg intraperitoneally in mice on day 1; type: functional, Mus musculus; conditions: route intraperitoneal
[39] = system: L1210; assay: Median survival time of treated to that of control after administration at 0.4 mg/kg intraperitoneally in BDF1 mice on day 1; type: functional, Mus musculus; conditions: route intraperitoneal
[40] = system: L1210; assay: Median survival time of treated to that of control after administration at 6.4 mg/kg intraperitoneally in BDF1 mice on day 1; type: functional, Mus musculus; conditions: route intraperitoneal

CC(=O)[C@]1(O)Cc2c(O)c3c(c(O)c2[C@@H](O[C@H]2C[C@H](O)[C@H](O)[C@H](C)O2)C1)C(=O)c1c(O)cccc1C3=O
Average weight change [1]: 0.3 | Inhibition zone [2]: 19.5 mm | Inhibition zone [3]: 21.5 mm | Average weight change [4]: -1.9 | Inhibition zone [5]: 21.5 mm | Average weight change [6]: -0.9 | Average weight change [7]: -0.4 | Average weight change [8]: -1.6 | Average weight change [9]: 2.3 | Average weight change [10]: 2.4 | Inhibition zone [11]: 17.2 mm | Average weight change [12]: 0.6 | Average weight change [13]: -0.8 | Average weight change [14]: 0.7 | Average weight change [15]: -1.2 | Average weight change [16]: -0.3 | Average weight change [17]: 0.6 | Average weight change [18]: -1.1 | Average weight change [19]: -0.6 | Average weight change [20]: 1.2 | Average weight change [21]: -0.8 | Average weight change [22]: 0.2 | Inhibition zone [23]: 21.3 mm

C/C(=N\NC(=O)c1ccccc1)[C@]1(O)Cc2c(O)c3c(c(O)c2[C@@H](O[C@H]2C[C@H](O)[C@H](O)[C@H](C)O2)C1)C(=O)c1c(O)cccc1C3=O
Survivors [24]: 6 | Survivors [25]: 6 | T/C [26]: 114% | Inhibition zone [2]: 10.3 mm | Average weight change [27]: 2.3 | Average weight change [28]: 1.9 | Inhibition zone [3]: 13.8 mm | Average weight change [29]: 2 | Inhibition zone [5]: 15 mm | T/C [30]: 93% | T/C [31]: 93% | Survivors [32]: 6 | T/C [33]: 100% | Survivors [34]: 6 | Survivors [35]: 6 | Survivors [36]: 6 | Average weight change [37]: -0.3 | Average weight change [38]: 1.5 | T/C [39]: 100% | T/C [40]: 107% | Inhibition zone [23]: 12.8 mm
